# Patent US11370798B2 (Vertex Pharmaceuticals Incorporated, priority 2012, dated 2022)
# Test system: HCT116 colorectal cancer cells
# Assay: Cisplatin sensitization assay (96 h cell viability MTS);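 note: Test-compound concentration that lowers the Cisplatin IC50 by a set fold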
# Assay type: cell-based
# Details: compound and Cisplatin added simultaneously, Cisplatin sensitization value
# Method in brief: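 Viability read by MTS (1 h at 37° C) after 96 h co-exposure at 37° C, 5% CO2. Test compound and cisplatin were dosed simultaneously in a full concentration matrix, each 2-fold serially diluted from 10 μM final; sensitization values binned in μM.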
smiles,measurement,value
"N#CCc1cnc2c(C(=O)Nc3cnccc3OC3COC3)c(N)nn2c1 [I-O-38, 2-amino-6-(cyanomethyl)-N-(4-(oxetan-3-yloxy)pyridin-3-yl)pyrazolo[1,5-a]pyrimidine-3-carboxamide]",Cisplatin Sensitization Assay,+++ (Cisplatin sensitization value of <0.02 μM)
"N#CCc1cnc2c(C(=O)Nc3cnccc3OC3CCCCC3)c(N)nn2c1 [I-O-39, 2-amino-6-(cyanomethyl)-N-(4-(cyclohexyloxy)pyridin-3-yl)pyrazolo[1,5-a]pyrimidine-3-carboxamide]",Cisplatin Sensitization Assay,+++ (Cisplatin sensitization value of <0.02 μM)
"N#CCc1cnc2c(C(=O)Nc3cnccc3OCCCO)c(N)nn2c1 [I-O-40, 2-amino-6-(cyanomethyl)-N-(4-(3-hydroxypropoxy)pyridin-3-yl)pyrazolo[1,5-a]pyrimidine-3-carboxamide]",Cisplatin Sensitization Assay,++ (Cisplatin sensitization value>0.02 μM but <0.2 μM)
"N#CCc1cnc2c(C(=O)Nc3cnccc3OC3CCCOC3)c(N)nn2c1 (centres unmarked) [I-O-41, 2-amino-6-(cyanomethyl)-N-(4-((tetrahydro-2H-pyran-3-yl)oxy)pyridin-3-yl)pyrazolo[1,5-a]pyrimidine-3-carboxamide]",Cisplatin Sensitization Assay,+++ (Cisplatin sensitization value of <0.02 μM)
"N#CCc1cnc2c(C(=O)Nc3cnccc3O[C@H]3CCOC3)c(N)nn2c1 [I-O-42, (S)-2-amino-6-(cyanomethyl)-N-(4-((tetrahydrofuran-3-yl)oxy)pyridin-3-yl)pyrazolo[1,5-a]pyrimidine-3-carboxamide]",Cisplatin Sensitization Assay,+++ (Cisplatin sensitization value of <0.02 μM)
"N#CCc1cnc2c(C(=O)Nc3cnccc3OC3CCCC3)c(N)nn2c1 [I-O-43, 2-amino-6-(cyanomethyl)-N-(4-(cyclopentyloxy)pyridin-3-yl)pyrazolo[1,5-a]pyrimidine-3-carboxamide]",Cisplatin Sensitization Assay,+++ (Cisplatin sensitization value of <0.02 μM)
"Nc1nn2cc(F)cnc2c1C(=O)Nc1cnccc1OC1CC[S+]([O-])CC1 (centres unmarked) [I-O-44, 2-amino-6-fluoro-N-(4-((1-oxidotetrahydro-2H-thiopyran-4-yl)oxy)pyridin-3-yl)pyrazolo[1,5-a]pyrimidine-3-carboxamide]",Cisplatin Sensitization Assay,++ (Cisplatin sensitization value>0.02 μM but <0.2 μM)
"Nc1nn2cc(F)cnc2c1C(=O)Nc1cnccc1OC1CCS(=O)(=O)CC1 [I-O-45, 2-amino-N-(4-((1,1-dioxidotetrahydro-2H-thiopyran-4-yl)oxy)pyridin-3-yl)-6-fluoropyrazolo[1,5-a]pyrimidine-3-carboxamide]",Cisplatin Sensitization Assay,+++ (Cisplatin sensitization value of <0.02 μM)
"CN1CCC(Oc2c(Cl)cncc2NC(=O)c2c(N)nn3cc(Cl)cnc23)CC1 [I-O-46, 2-amino-6-chloro-N-(5-chloro-4-((1-methylpiperidin-4-yl)oxy)pyridin-3-yl)pyrazolo[1,5-a]pyrimidine-3-carboxamide]",Cisplatin Sensitization Assay,+ (Cisplatin sensitization value>0.2 μM but <5 μM)
"CN(C)CCOCCOc1ccncc1NC(=O)c1c(N)nn2cc(Cl)cnc12 [I-O-47, 2-amino-6-chloro-N-(4-(2-(2-(dimethylamino)ethoxy)ethoxy)pyridin-3-yl)pyrazolo[1,5-a]pyrimidine-3-carboxamide]",Cisplatin Sensitization Assay,+ (Cisplatin sensitization value>0.2 μM but <5 μM)
"CN(C)CCOc1ccncc1NC(=O)c1c(N)nn2cc(Cl)cnc12 [I-O-48, 2-amino-6-chloro-N-(4-(2-(dimethylamino)ethoxy)pyridin-3-yl)pyrazolo[1,5-a]pyrimidine-3-carboxamide]",Cisplatin Sensitization Assay,++ (Cisplatin sensitization value>0.02 μM but <0.2 μM)
"CN1CCC[C@@H]1COc1ccncc1NC(=O)c1c(N)nn2cc(Cl)cnc12 [I-O-49, (R)-2-amino-6-chloro-N-(4-((1-methylpyrrolidin-2-yl)methoxy)pyridin-3-yl)pyrazolo[1,5-a]pyrimidine-3-carboxamide]",Cisplatin Sensitization Assay,+ (Cisplatin sensitization value>0.2 μM but <5 μM)
"CN1CCC[C@H]1COc1ccncc1NC(=O)c1c(N)nn2cc(Cl)cnc12 [I-O-50, (S)-2-amino-6-chloro-N-(4-((1-methylpyrrolidin-2-yl)methoxy)pyridin-3-yl)pyrazolo[1,5-a]pyrimidine-3-carboxamide]",Cisplatin Sensitization Assay,+ (Cisplatin sensitization value>0.2 μM but <5 μM)
"CN(C)CCCOc1ccncc1NC(=O)c1c(N)nn2cc(Cl)cnc12 [I-O-52, 2-amino-6-chloro-N-(4-(3-(dimethylamino)propoxy)pyridin-3-yl)pyrazolo[1,5-a]pyrimidine-3-carboxamide]",Cisplatin Sensitization Assay,+ (Cisplatin sensitization value>0.2 μM but <5 μM)
"Nc1nn2cc(Cl)cnc2c1C(=O)Nc1cnccc1OCCCO [I-O-53, 2-amino-6-chloro-N-(4-(3-hydroxypropoxy)pyridin-3-yl)pyrazolo[1,5-a]pyrimidine-3-carboxamide]",Cisplatin Sensitization Assay,+++ (Cisplatin sensitization value of <0.02 μM)
"Nc1nn2cc(Cl)cnc2c1C(=O)Nc1cnccc1O[C@@H]1CCOC1 [I-O-54, (R)-2-amino-6-chloro-N-(4-((tetrahydrofuran-3-yl)oxy)pyridin-3-yl)pyrazolo[1,5-a]pyrimidine-3-carboxamide]",Cisplatin Sensitization Assay,+++ (Cisplatin sensitization value of <0.02 μM)
"COCCOc1ccncc1NC(=O)c1c(N)nn2cc(Cl)cnc12 [I-O-55, 2-amino-6-chloro-N-(4-(2-methoxyethoxy)pyridin-3-yl)pyrazolo[1,5-a]pyrimidine-3-carboxamide]",Cisplatin Sensitization Assay,++ (Cisplatin sensitization value>0.02 μM but <0.2 μM)
"CCOc1ccncc1NC(=O)c1c(N)nn2cc(Cl)cnc12 [I-O-56, 2-amino-6-chloro-N-(4-ethoxypyridin-3-yl)pyrazolo[1,5-a]pyrimidine-3-carboxamide]",Cisplatin Sensitization Assay,+++ (Cisplatin sensitization value of <0.02 μM)
"COc1ccncc1NC(=O)c1c(N)nn2cc(Cl)cnc12 [I-O-57, 2-amino-6-chloro-N-(4-methoxypyridin-3-yl)pyrazolo[1,5-a]pyrimidine-3-carboxamide]",Cisplatin Sensitization Assay,+++ (Cisplatin sensitization value of <0.02 μM)
"Nc1nn2cc(Cl)cnc2c1C(=O)Nc1cnccc1O[C@H]1CCOC1 [I-O-58, (S)-2-amino-6-chloro-N-(4-((tetrahydrofuran-3-yl)oxy)pyridin-3-yl)pyrazolo[1,5-a]pyrimidine-3-carboxamide]",Cisplatin Sensitization Assay,+++ (Cisplatin sensitization value of <0.02 μM)
"Nc1nn2cc(Cl)cnc2c1C(=O)Nc1cnccc1OCC(F)(F)F [I-O-59, 2-amino-6-chloro-N-(4-(2,2,2-trifluoroethoxy)pyridin-3-yl)pyrazolo[1,5-a]pyrimidine-3-carboxamide]",Cisplatin Sensitization Assay,+++ (Cisplatin sensitization value of <0.02 μM)
"Nc1nn2cc(Cl)cnc2c1C(=O)Nc1cnccc1OCCN1CCOCC1 [I-O-60, 2-amino-6-chloro-N-(4-(2-morpholinoethoxy)pyridin-3-yl)pyrazolo[1,5-a]pyrimidine-3-carboxamide]",Cisplatin Sensitization Assay,++ (Cisplatin sensitization value>0.02 μM but <0.2 μM)
"Nc1nn2cc(Cl)cnc2c1C(=O)Nc1cnccc1OC1CCOCC1 [I-O-61, 2-amino-6-chloro-N-(4-((tetrahydro-2H-pyran-4-yl)oxy)pyridin-3-yl)pyrazolo[1,5-a]pyrimidine-3-carboxamide]",Cisplatin Sensitization Assay,+++ (Cisplatin sensitization value of <0.02 μM)
"Nc1nn2cc(Cl)cnc2c1C(=O)Nc1cnccc1OC1CN2CCC1CC2 (centres unmarked) [I-O-62, 2-amino-6-chloro-N-(4-(quinuclidin-3-yloxy)pyridin-3-yl)pyrazolo[1,5-a]pyrimidine-3-carboxamide]",Cisplatin Sensitization Assay,+++ (Cisplatin sensitization value of <0.02 μM)
"CN1CC[C@@H](Oc2ccncc2NC(=O)c2c(N)nn3cc(Cl)cnc23)C1 [I-O-63, (R)-2-amino-6-chloro-N-(4-((1-methylpyrrolidin-3-yl)oxy)pyridin-3-yl)pyrazolo[1,5-a]pyrimidine-3-carboxamide]",Cisplatin Sensitization Assay,++ (Cisplatin sensitization value>0.02 μM but <0.2 μM)
"CN1CCC(Oc2ccncc2NC(=O)c2c(N)nn3cc(Cl)cnc23)CC1 [I-O-64, 2-amino-6-chloro-N-(4-((1-methylpiperidin-4-yl)oxy)pyridin-3-yl)pyrazolo[1,5-a]pyrimidine-3-carboxamide]",Cisplatin Sensitization Assay,+++ (Cisplatin sensitization value of <0.02 μM)
"Nc1nn2cc(Cl)cnc2c1C(=O)Nc1cnccc1OC1CCCOC1 (centres unmarked) [I-O-65, 2-amino-6-chloro-N-(4-((tetrahydro-2H-pyran-3-yl)oxy)pyridin-3-yl)pyrazolo[1,5-a]pyrimidine-3-carboxamide]",Cisplatin Sensitization Assay,+++ (Cisplatin sensitization value of <0.02 μM)
"Nc1nn2cc(Cl)cnc2c1C(=O)Nc1cnccc1OCCO [I-O-66, 2-amino-6-chloro-N-(4-(2-hydroxyethoxy)pyridin-3-yl)pyrazolo[1,5-a]pyrimidine-3-carboxamide]",Cisplatin Sensitization Assay,+ (Cisplatin sensitization value>0.2 μM but <5 μM)
"COCCN1CCC[C@H](Oc2ccncc2NC(=O)c2c(N)nn3cc(Cl)cnc23)C1 [I-O-67, (S)-2-amino-6-chloro-N-(4-((1-(2-methoxyethyl)piperidin-3-yl)oxy)pyridin-3-yl)pyrazolo[1,5-a]pyrimidine-3-carboxamide]",Cisplatin Sensitization Assay,++ (Cisplatin sensitization value>0.02 μM but <0.2 μM)
"CN(C)CCOc1cc(Cl)ncc1NC(=O)c1c(N)nn2cc(Cl)cnc12 [I-O-68, 2-amino-6-chloro-N-(6-chloro-4-(2-(dimethylamino)ethoxy)pyridin-3-yl)pyrazolo[1,5-a]pyrimidine-3-carboxamide]",Cisplatin Sensitization Assay,++ (Cisplatin sensitization value>0.02 μM but <0.2 μM)
"CN1CC[C@H](Oc2ccncc2NC(=O)c2c(N)nn3cc(Cl)cnc23)C1 [I-O-69, (S)-2-amino-6-chloro-N-(4-((1-methylpyrrolidin-3-yl)oxy)pyridin-3-yl)pyrazolo[1,5-a]pyrimidine-3-carboxamide]",Cisplatin Sensitization Assay,++ (Cisplatin sensitization value>0.02 μM but <0.2 μM)
"Nc1nn2cc(Cl)cnc2c1C(=O)Nc1cnccc1Oc1cccnc1 [I-O-70, 2-amino-6-chloro-N-(4-(pyridin-3-yloxy)pyridin-3-yl)pyrazolo[1,5-a]pyrimidine-3-carboxamide]",Cisplatin Sensitization Assay,+++ (Cisplatin sensitization value of <0.02 μM)
